US20110224231A1, “Novel Lactams as Beta Secretase Inhibitors” (Pfizer Inc., priority 2008, published 2011)
Structures can show the parent of a compound that is named as a salt. Where two headings read alike, the source gives them in different places.

Target: T1, soluble human BACE (Homo sapiens, UniProt P56817)
T1 construct: cells secreting human recombinant soluble BACE; made in house; conditioned medium
Assay: BACE activity Cell Free Assay (ELISA of cleaved synthetic APP substrate)
Assay type: biochemical

[1] = Table 4, cell free, soluble human BACE, pH 4.5, 3 μM substrate, read-out: BACE Activity (Cell Free Assay IC50)

T1 sequence (P56817 46-457 limits assumed): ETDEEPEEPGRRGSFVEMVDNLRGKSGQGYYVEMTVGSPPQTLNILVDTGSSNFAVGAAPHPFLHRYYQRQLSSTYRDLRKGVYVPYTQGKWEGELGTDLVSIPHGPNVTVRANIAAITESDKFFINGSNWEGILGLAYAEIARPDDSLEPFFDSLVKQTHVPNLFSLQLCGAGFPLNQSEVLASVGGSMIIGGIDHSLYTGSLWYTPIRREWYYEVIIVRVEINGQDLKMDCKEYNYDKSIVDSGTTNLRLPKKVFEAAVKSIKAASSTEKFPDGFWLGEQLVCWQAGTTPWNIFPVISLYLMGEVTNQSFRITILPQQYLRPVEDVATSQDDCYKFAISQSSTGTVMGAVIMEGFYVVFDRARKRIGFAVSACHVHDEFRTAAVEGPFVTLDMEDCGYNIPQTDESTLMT

Structure (SMILES)	IC50	IC50 [1]
CC(C)Oc1cccc(CN2CC[C@]3(CC(O)C(=O)N3c3cccc(F)c3)C[C@@H]2C)c1 (mixture of isomers) [Example 92, Racemic (3R/S,5R,7S)(3R/S,5S,7R)˜1˜(3˜fluorophenyl)˜3˜hydroxy˜8˜(3˜isopropoxybenzyl)-7-methyl-1,8-diazaspiro[4.5]decan-2-one, hydrochloride salt]	10 to 100 µM	–
CC(C)Oc1cccc(CN2CC[C@]3(C=CC(=O)N3c3ccccn3)C[C@@H]2C)c1 [#101]	10 to 100 µM	–
CC(C)Oc1cccc(CN2CC[C@]3(C=CC(=O)N3c3ccncc3)C[C@@H]2C)c1 [#102]	100 to 300 µM	–
CC(C)Oc1cccc(CN2CC[C@]3(C=CC(=O)N3c3ccc(Cl)cn3)C[C@@H]2C)c1 [#104]	–	10 to 100 µM
Cc1ccc(N2C(=O)C=C[C@]23CCN(Cc2cccc(OC(C)C)c2)[C@@H](C)C3)nc1 [#105]	–	10 to 100 µM
Cc1cccc(N2C(=O)C=C[C@]23CCN(Cc2cccc(OC(C)C)c2)[C@@H](C)C3)n1 [#107]	1 to 10 µM	–
Cc1ccnc(N2C(=O)C=C[C@]23CCN(Cc2cccc(OC(C)C)c2)[C@@H](C)C3)c1 [#108]	1 to 10 µM	–
Cc1ccc(N2C(=O)C=C[C@]23CCN(Cc2cccc(OC(C)C)c2)[C@@H](C)C3)cn1 [#109]	10 to 100 µM	–
Cc1cc(N2C(=O)C=C[C@]23CCN(Cc2cccc(OC(C)C)c2)[C@@H](C)C3)ccn1 [#110]	10 to 100 µM	–
CC(C)Oc1cccc(CN2CC[C@]3(C=CC(=O)N3c3cccnc3)C[C@@H]2C)c1 [#111]	10 to 100 µM	–
COc1cc(F)cc(N2C(=O)C=C[C@]23CCN(Cc2cccc(OC(C)C)c2)[C@@H](C)C3)c1 [#112]	1 to 10 µM	–
CC(C)Oc1cccc(CN2CC[C@]3(C=CC(=O)N3c3cnn(C)c3)C[C@@H]2C)c1 [#113]	10 to 100 µM	–
Cc1cncc(N2C(=O)C=C[C@]23CCN(Cc2cccc(OC(C)C)c2)[C@@H](C)C3)c1 [#114]	1 to 10 µM	–
Cc1cccnc1N1C(=O)C=C[C@]12CCN(Cc1cccc(OC(C)C)c1)[C@@H](C)C2 [#115]	10 to 100 µM	–
CC(C)Oc1cccc(CN2CC[C@]3(C=CC(=O)N3c3cncc(F)c3)C[C@@H]2C)c1 [#116]	1 to 10 µM	–
CC(C)Oc1cccc(CN2CC[C@]3(C=CC(=O)N3c3cncc(Cl)c3)C[C@@H]2C)c1 [#117]	1 to 10 µM	–
CC(C)Oc1cccc(CN2CC[C@]3(C=CC(=O)N3c3cncc(C(F)(F)F)c3)C[C@@H]2C)c1 [#118]	10 to 100 µM	–
CC(C)Oc1cccc(CN2CC[C@]3(C=CC(=O)N3c3cc(C(F)(F)F)ccn3)C[C@@H]2C)c1 [#119]	100 to 300 µM	–
CC(C)Oc1cccc(CN2CC[C@]3(C=CC(=O)N3c3cncc(C#N)c3)C[C@@H]2C)c1 [#120]	10 to 100 µM	–
Cc1nc(N2C(=O)C=C[C@]23CCN(Cc2cccc(OC(C)C)c2)[C@@H](C)C3)cs1 [#121]	1 to 10 µM	–

Structure (SMILES)	IC50	IC50 [1]
CC(C)Oc1cccc(CN2CC[C@]3(C=CC(=O)N3c3ccn(C)n3)C[C@@H]2C)c1 [#122]	10 to 100 µM	–
CCn1cc(N2C(=O)C=C[C@]23CCN(Cc2cccc(OC(C)C)c2)[C@@H](C)C3)cn1 [#123]	100 to 300 µM	–
CC(C)Oc1cccc(CN2CC[C@]3(C=CC(=O)N3c3ccc(F)cn3)C[C@@H]2C)c1 [#124]	–	10 to 100 µM
CC(C)Oc1cccc(CN2CC[C@]3(C=CC(=O)N3c3cccc(C(F)(F)F)n3)C[C@@H]2C)c1 [#125]	–	10 to 100 µM
Cc1cncc(N2C(=O)C=C[C@]23CCN(Cc2cccc(OC(C)C)c2)[C@@H](C)C3)n1 [#126]	–	10 to 100 µM
CC(C)n1ncc2ccc(CN3CC[C@]4(C=CC(=O)N4c4cnccn4)C[C@@H]3C)cc21 [#130, (5R,7S)-8-[(1-isopropyl-1H-indazol-6-yl)methyl]-7-methyl-1-pyrazin-2-yl-1,8-diazaspiro[4.5]dec-3-en-2-one]	10 to 100 µM	–
C[C@H]1C[C@@]2(C=CC(=O)N2c2cnccn2)CCN1Cc1scnc1CC1CCC1 [#131, (5R,7S)-8-([4-(cyclobutylmethyl)-1,3-thiazol-5-yl]methyl)-7-methyl-1-pyrazin-2-yl-1,8-diazaspiro[4.5]dec-3-en-2-one]	1 to 10 µM	–
CC(C)Oc1cc(CN2CC[C@]3(C=CC(=O)N3c3cnccn3)C[C@@H]2C)ccc1O [#132, (5R,7S)-8-(4-hydroxy-3-isopropoxybenzyl)-7-methyl-1-pyrazin-2-yl-1,8-diazaspiro[4.5]dec-3-en-2-one]	0.001 to 1 µM	–
CCCn1nccc1CN1CC[C@]2(C=CC(=O)N2c2cnccn2)C[C@@H]1C [#133, (5R,7S)-7-methyl-8-[(1-propyl-1H-pyrazol-5-yl)methyl]-1-pyrazin-2-yl-1,8-diazaspiro[4.5]dec-3-en-2-one]	100 to 300 µM	–
C[C@H]1C[C@@]2(C=CC(=O)N2c2cnccn2)CCN1Cc1ccnn1CC(F)(F)F [#134, (5R,7S)-7-methyl-1-pyrazin-2-yl-8-[(1-(2,2,2-trifluoroethyl)-1H-pyrazol-5-yl]methyl]-1,8-diazaspiro[4.5]dec-3-en-2-one]	100 to 300 µM	–
Cc1cccc(N2C(=O)C=C[C@]23CCN(Cc2ccc(O)c(OC(C)C)c2)[C@@H](C)C3)n1 [#135, (5R,7S)-8-(4-hydroxy-3-isopropoxybenzyl)-7-methyl-1-(6-methylpyridin-2-yl)-1,8-diazaspiro[4.5]dec-3-en-2-one]	0.001 to 1 µM	–
Cc1cccc(N2C(=O)C=C[C@]23CCN(Cc2ccc(O)c(-c4sccc4C)c2)[C@@H](C)C3)n1 [#136, (5R,7S)-8-[4-hydroxy-3-(3-methyl-2-thienyl)benzyl]-7-methyl-1-(6-methylpyridin-2-yl)-1,8-diazaspiro[4.5]dec-3-en-2-one]	0.001 to 1 µM	–
Cc1cccc(N2C(=O)C=C[C@]23CCN(Cc2scnc2CC2CCC2)[C@@H](C)C3)n1 [#137, (5R,7S)-8-{[4-(cyclobutylmethyl)-1,3-thiazol-5-yl]methyl}-7-methyl-1-(6-methylpyridin-2-yl)-1,8-diazaspiro[4.5]dec-3-en-2-one]	1 to 10 µM	–
CCCn1nccc1CN1CC[C@]2(C=CC(=O)N2c2cccc(C)n2)C[C@@H]1C [#138, (5R,7S)-7-methyl-1-(6-methylpyridin-2-yl)-8-[(1-propyl-1H-pyrazol-5-yl)methyl]-1,8-diazaspiro[4.5]dec-3-en-2-one]	10 to 100 µM	–
Cc1cccc(N2C(=O)C=C[C@]23CCN(Cc2ccc4cnn(C(C)C)c4c2)[C@@H](C)C3)n1 [#139, (5R,7S)-8-[(1-isopropyl-1H-indazol-6-yl)methyl]-7-methyl-1-(6-methylpyridin-2-yl)-1,8-diazaspiro[4.5]dec-3-en-2-one]	100 to 300 µM	–
C[C@H]1C[C@@]2(C=CC(=O)N2c2cnccn2)CCN1Cc1ccc(O)c(Cl)c1 [#140, (5R,7S)-8-(3-chloro-4-hydroxybenzyl)-7-methyl-1-pyrazin-2-yl-1,8-diazaspiro[4.5]dec-3-en-2-one, ammonium salt]	10 to 100 µM	–
Cc1cccc(N2C(=O)C=C[C@]23CCN(Cc2ccc(O)c(Cl)c2)[C@@H](C)C3)n1 [#141, (5R,7S)-8-(3-chloro-4-hydroxybenzyl)-7-methyl-1-(6-methylpyridin-2-yl)-1,8-diazaspiro[4.5]dec-3-en-2-one, ammonium salt]	1 to 10 µM	–
CC(C)Cc1ocnc1CN1CC[C@]2(C=CC(=O)N2c2cccc(F)c2)C[C@@H]1C [#200]	1 to 10 µM	–
C[C@H]1C[C@@]2(C=CC(=O)N2c2cccc(F)c2)CCN1Cc1ccc(O)c(Cl)c1 [#201]	1 to 10 µM	–
Cc1ccccc1-c1cc(CN2CC[C@]3(C=CC(=O)N3c3cccc(F)c3)C[C@@H]2C)ccc1O [#202]	0.001 to 1 µM	–

Structure (SMILES)	IC50	IC50 [1]
CC[C@@H](C)Oc1cccc(CN2CC[C@]3(C=CC(=O)N3c3cccc(F)c3)C[C@@H]2C)c1 [#203]	1 to 10 µM	–
CC(C)C(=O)c1cc(CN2CC[C@]3(C=CC(=O)N3c3cccc(F)c3)C[C@@H]2C)ccc1O [#204]	1 to 10 µM	–
CC(C)C(O)c1cc(CN2CCC3(C=CC(=O)N3c3cccc(F)c3)CC2C)ccc1O (stereo not shown) [#205]	0.001 to 1 µM	–
C[C@H]1C[C@@]2(C=CC(=O)N2c2cccc(F)c2)CCN1Cc1ccc(O)c(-c2ccccc2Cl)c1 [#206]	0.001 to 1 µM	–
C[C@H]1C[C@@]2(C=CC(=O)N2c2cccc(F)c2)CCN1Cc1ncoc1-c1ccccc1 [#207]	10 to 100 µM	–
C[C@H]1C[C@@]2(C=CC(=O)N2c2cccc(F)c2)CCN1Cc1ccc(O)c(-c2ccccc2F)c1 [#208]	0.001 to 1 µM	–
Cc1ccc(F)cc1-c1cc(CN2CC[C@]3(C=CC(=O)N3c3cccc(F)c3)C[C@@H]2C)ccc1O [#209]	0.001 to 1 µM	–
C[C@H]1C[C@@]2(C=CC(=O)N2c2cccc(F)c2)CCN1Cc1scnc1CC1CC1 [#210]	0.001 to 1 µM	–
C[C@H]1C[C@@]2(C=CC(=O)N2c2cccc(F)c2)CCN1Cc1scnc1CC1CCC1 [#211]	0.001 to 1 µM	–
Cc1ccsc1-c1cc(CN2CC[C@]3(C=CC(=O)N3c3cccc(F)c3)C[C@@H]2C)ccc1O [#212]	0.001 to 1 µM	–
CC(C)Cc1ocnc1CN1CC[C@]2(CCC(=O)N2c2cccc(F)c2)C[C@@H]1C [#213]	10 to 100 µM	–
C[C@H]1C[C@@]2(CCC(=O)N2c2cccc(F)c2)CCN1Cc1ccc(O)c(Cl)c1 [#214]	1 to 10 µM	–
Cc1ccccc1-c1cc(CN2CC[C@]3(CCC(=O)N3c3cccc(F)c3)C[C@@H]2C)ccc1O [#215]	0.001 to 1 µM	–
CC[C@@H](C)Oc1cccc(CN2CC[C@]3(CCC(=O)N3c3cccc(F)c3)C[C@@H]2C)c1 [#216]	1 to 10 µM	–
Cc1ccsc1-c1cc(CN2CC[C@]3(CCC(=O)N3c3cccc(F)c3)C[C@@H]2C)ccc1O [#217]	1 to 10 µM	–
CC(C)Oc1cc(CN2CC[C@]3(C=CC(=O)N3c3cccc(F)c3)C[C@@H]2C)ccc1O [Example 87, (5R7S)-1-(3-fluorophenyl)-8-(4-hydroxy-3-isopropoxybenzyl)-7-methyl-1,8-diazaspiro[4,5]dec-3-en-2-one hydrochloride]	0.001 to 1 µM	–
Cc1ccccc1-c1cccc(CN2CC[C@]3(CCC(=O)N3c3cccc(F)c3)C[C@@H]2C)c1 [Example 88, (5R,7S)˜1˜(3˜fluorophenyl)˜7˜methyl˜8˜[(2′˜methylbiphenyl˜3˜yl)methyl]˜1,8˜diazaspiro[4.5]decan˜2˜one hydrochloride]	1 to 10 µM	–
CC(C)Oc1cc(CN2CC[C@]3(CCC(=O)N3c3cccc(F)c3)C[C@@H]2C)ccc1O [Example 89, (5R,7S)˜1˜(3˜fluorophenyl)˜8˜(4˜hydroxy˜3˜isopropoxybenzyl)˜7˜methyl˜1,8˜diazaspiro[4.5]decan˜2˜one hydrochloride]	0.001 to 1 µM	–
